In patent EP1996603B1, “LIPID A ANTAGONISTS WITH ANTI-SEPTIC SHOCK, ANTI-INFLAMMATORY, ANTI-ISCHEMIA AND ANALGESIC ACTIVITY” (Università Degli Studi Di Milano - Bicocca, priority 2006, dated 2007):

Assays:
[1] = Chemical stability; type: physicochemical; settings: N,O acetal group at C6 in Ia
Description: Reagents and conditions: a) ADMA, CSA, DMF, 94%; b) C14H29Br, NaH, DMF, 74%; c) LiAlH4, AlCl3, CH2Cl2/Et2O, 86%; d) Dess- Martin periodinane, CH2Cl2; e) cyclopentylamine, NaBH3CN, AcOH, CH2Cl2, MeOH, 75% over two steps; f) TFA, CH2Cl2, 80%;g) CH3I, Na2CO3, DMF, 94%; h) O-methylhydroxylamine hydrochloride, pyridine, 65% from 6, i) NaBH3CN, glacial AcOH, 92%; l) TFA, CH2Cl2, 90%, m) DHF, PPTS, CH2Cl2, 65%; n) bromocyclopentane, DIPEA.

[2] = tested on: BMΦ, BMDC and D1 cells; assay: Lipid A-induced TNFα production in macrophages and dendritic cells (ELISA); type: cell-based, Mouse; settings: for direct inflammatory function (stimulating cytokines production): cells treated with compound alone, without lipid A
Experimental: BMΦ and DC were derived from bone marrow cells and divided in two separate cultures. For DC preparation bone marrow cells were cultured in complete IMDM supplemented with 10% supernatant of GM-CSF-transduced B16 tumor cells [R. Soiffer, T. Lynch, M. Mihm, K. Jung, C. Rhuda, J. C. Schmollinger, F. S. Hodi, L. Liebster, P. Lam, S. Mentzer, S. Singer, K. K. Tanabe, A. B. Cosimi, R. Duda, A. Sober, A. Bhan, J. Daley, D. Neuberg, G. Parry, J. Rokovich, L. Richards, J. Drayer, A. Berns, S. Clift, L. K. Cohen, R. C. Mulligan, G. Dranoff, Proc. Natl. Acad. Sci. U S A. 1998, 95(22), 13141-13146]. Fresh medium was added every 2 d. After 7-10 d of culture, cells were analyzed for CD11c expression and used in assays when 90% were CD11c positive. For BMΦ preparation bone marrow cells were cultured in complete IMDM supplemented with 10% supernatant of M-CSF-transduced NIH3T3 cells. Also in this case, fresh medium was added every 2 d. After 7-10 d of culture, cells were analyzed for Mac1 expression and used in assays when at least 90% were Mac1 positive. D1 cells were cultured in complete IMDM supplemented with 10% supernatant of GM-CSF-transduced B16 tumor cells.
D1 cells, BMDC and MΦ were plated in 48 well plates at a concentration of 200000 cells/well in 200µL of medium. One or two hours after plating they were treated with different amounts of compounds Ic and Id for 30 min and then stimulated with Lipid A from Escherichia coli (F583, Rd mutant Sigma, 0.5µM) for 18 h.
Given the pivotal role of early-activated DC and MΦ in directing inflammatory reactions, compounds Ia, Ic and Id were tested for their ability to antagonize the stimulatory activity of lipid A on bone marrow derived macrophages (BMΦ) and DC (BMDC) by interfering with their capacity to induce TNFα production. As source of DC, D1 cells, a long term growth factor (GM-CSF)-dependent DC line [C. Winzler et al. J. Exp. Med. 1997, 185, 317-327] were also used. BMΦ, BMDC and D1 cells were stimulated with lipid A (0.5 µM) after a pre-exposure to compounds Ia, Ic and Id and the amount of TNFα released in the supernatant was measured by ELISA.

Row | chemical stability [1] | Structure (SMILES) | direct inflammatory function (stimulating cytokines production) [2] | relative potency as inhibitor of lipid A ([2]; comparison between compounds Ia, Ic and Id) | TNFα production ([2]; stimulation with lipid A (0.5 µM) after pre-exposure to compound, TNFα released in the supernatant measured by ELISA, BMΦ, BMDC and D1 cells)
1 | chemically unstable | CCCCCCCCCCCCCCO[C@H]1[C@@H](OC)O[C@H](CN(OC)C2CCCO2)[C@@H](O)[C@@H]1OCCCCCCCCCCCCCC (stereo partly drawn) [Compound Ia, methyl 6-deoxy-6-[N-(1'-tetrahydrofuranyl)-N'-methoxyamino)-2,3-di-O-tetradecyl-α-D-glucopyranoside] | did not show any direct inflammatory function | – | –
2 | more stable than compound (Ia) | CCCCCCCCCCCCCCO[C@H]1[C@@H](OC)O[C@H](CN(OC)C2CCCC2)[C@@H](O)[C@@H]1OCCCCCCCCCCCCCC [Ib, methyl 6-deoxy-6-[N-(cyclopentyl)-N'-methoxyamino)-2,3-di-O-tetradecyl-α-D-glucopyranoside] | – | – | –
3 | – | CCCCCCCCCCCCCCO[C@H]1[C@@H](OC)O[C@H](CNC2CCCC2)[C@@H](O)[C@@H]1OCCCCCCCCCCCCCC [Ic, methyl 6-deoxy-6-cyclopentylamino-2,3-di-O-tetradecyl-α-D-glucopyranoside] | did not show any direct inflammatory function | a better inhibitor than Ia | interfered with lipid A's action in a dose-dependent manner
